Entries after “also recorded” stand apart in the source; their conditions may differ.
What was measured:
[1] = system: MEF2D binding sites in SKOv3 ovarian cancer cells; assay type: cell-based, human
Procedure: Genome-wide binding of MEF2D in SKOv3 ovarian cancer cells was then examined using chromatin immunoprecipitation sequencing (Chip-seq). […] To identify a MEF2D consensus recognition sequence in ovarian cancer cells, de novo-motif discovery analysis was performed.
Chip assays were performed using the Magna Chip A Kit (Millipore). […] Nuclei were isolated and sonicated to obtain 200-1000 bp DNA fragments using the QSONICA sonicator for 30 cycles with 10 seconds pulses at 100% amplitude with 2 min of incubation on ice between pulses. […] For ChIP-Sequence, 500 μg of chromatin per sample was immunoprecipitated with 40 μg of MEF2D antibody. Input determined from 1% of the cell lysate was used as a negative control. Purified and enriched DNA was quantified using real time quantitative PCR (RT-qPCR) with the following primers. […] Analysis of qPCR data was calculated using fold enrichment method (The ChIP signals are divided by the IgG antibody signals, 2^-DDCt).
Sequencing was performed by the Sequencing and Microarray Facility (SMF) at MD Anderson Cancer Center. […] Libraries were amplified by 8 cycles of PCR and then size distribution was assessed using the 4200 TapeStation High Sensitivity D1000 ScreenTape (Agilent Technologies) and quantified using the Qubit dsDNA HS Assay Kit (ThermoFisher). […] The raw reads were first preprocessed to remove sequencing adapters and low quality reads. […]

[2] = system: SKOv3, OVCAR8, HCC5032, MDA-MB-231 cells; test: DNA damage: γ-H2AX immunofluorescence and comet assay; assay type: cell-based, human
Procedure: (A) The Heatmap representation unsupervised hierarchical clustering of differentially expressed genes associated with DNA repair. […] (B) Analysis of DNA Repair and apoptosis genes. BRCA2, EXO1, FANCD2, LIG4, XRCC4, BAX, BCL2, CASP7, and TRADD were analyzed using RT-PCR in OVCAR8 ovarian and MDA-MB-231 breast cancer cells. […] (C) Quantification of DNA damage (γ-H2AX). Endogenous γ-H2AX was stained with anti-γ-H2AX antibody in the cells treated with single agent or combined for 8 hrs as indicated. […] Red indicates γ-H2AX and Blue-DAPI indicates nuclear stain. Representative images are presented (right). Bar 20 […]. Red γ-H2AX dots were quantified with OLYMPUS CellSens Dimension software. […] Bar 20 μm. (D) Detection of apoptosis using Annexin V/Propidium iodide (PI) staining.
(A) The heatmap of unsupervised hierarchical clustering of differently expressed genes associated with apoptosis. […] (B) Analysis of DNA repair and apoptosis gene. […] Representative experiments were from two independent experiment and 3 technical repeats per experiments. (C) Quantification of DNA damage using comet assay. […] Slides were then stained with Vista Green DNA dye and viewed using Olympus fluorescence microscope with FITC filter. Olive Tail Moment was measured using CaspLab1.2.3β2 software. […] Representative experiments were from three independent experiments with a minimum of 50 cells.
Cells were trypsinized and resuspended at 2×10^5/mL in cold PBS without Ca^2+ and Mg^2+. Cells were mixed with pre-warmed comet agarose at 1:10 (v/v) ratio. 10 uL of cell agarose mixture was plated onto comet slides pre-coated with 75 uL of agarose and chilled at 4° C. for 15 min to set. Cells were lysed in 25 mL of Lysis buffer at 4° C. for 2 hrs and washed with alkaline solution (pH 10). Comet slides were electrophoresed in cold alkaline solution at 20V for 15 min. […] Experiments were run in triplicate and Olive Tail Moment was measured using CaspLab1.2.β2 software (CaspLab.com). […] 50-200 Cells were measured for each treatment and experiments were repeated twice independently to ensure reproducibility. […]

[3] = system: MEF2D binding to FANCD2, EXO1, XRCC4; test: ChIP-qPCR of MEF2D binding to promoter/enhancer regions; assay type: cell-based, human; details: for MEF2D binding to EXO1 and XRCC4 promoter/enhancer regions: all cell lines tested; for MEF2D-association with the FANCD2 promoter/enhancer region: all four cell lines assessed
Procedure: (A) Alterations affecting MEF2 family genes in ovarian and breast cancer by TCGA analysis. […] Data and plots were obtained using cBioPortal (21, 58, 59). (B) MEF2D consensus DNA motifs. The MEF2 motif is enriched in MEF2D-binding sites in SKOv3 cells. (C) GO analysis of MEF2D-bound genes. […] (E) Chip and RT-qPCR analysis of FANCD2, EXO1, and XRCC4 genes. […] Chip pull-down samples were analyzed by RT-qPCR.
(A) MEF2D-binding sites in human ovarian cancer cells. (B) Chip analysis of FANCD2, EXO1, and XRCC4 genes. […] Chip pull-down samples were analyzed by RT-qPCR using as indicated.
Chip assays were performed using the Magna Chip A Kit (Millipore). […] Nuclei were isolated and sonicated to obtain 200-1000 bp DNA fragments using the QSONICA sonicator for 30 cycles with 10 seconds pulses at 100% amplitude with 2 min of incubation on ice between pulses. For individual ChIP assay, 100 μg of soluble chromatin per sample was immunoprecipitated with 8 μg of mouse IgG control antibody (Santa Cruz, sc-2025), 8 μg of rabbit control antibody (Millipore, PP64B), 8 μg of MEF2D antibody (Santa Cruz, sc-27115 3×), 8 μg of RNA polymerase II antibody (Abcam, ab817), 6 μg of Histone H3 (acetyl K27) antibody (Abcam, ab45173) or 6 μg of Histone H3 (tri methyl K4) (Abcam, ab8580). For ChIP-Sequence, 500 μg of chromatin per sample was immunoprecipitated with 40 μg of MEF2D antibody. Input determined from 1% of the cell lysate was used as a negative control. Purified and enriched DNA was quantified using real time quantitative PCR (RT-qPCR) with the following primers. FANCD2D Forward, 5′-ACCTGTTATGAGCGTGAAGTC-3′ (SEQ ID NO:1) and Reverse, 5′-GATGCAGGACTGTGCATTAGA-3′ (SEQ ID NO:2); EXD2 Forward, 5′-GGTCTGGCCTAAGGTTTCTTC-3′ (SEQ ID NO:3) and Reverse, 5′-CAG TTC ACG CTG GGT TCT T-3′ (SEQ ID NO:4); and XRCC Forward, 5′-GCAGTCTTCCTAGTCTCAACT-3′ (SEQ ID NO:5) and Reverse, 5′-TTGCCCTTCTAGGAGCTTAATG-3′ (SEQ ID NO:6). RT-qPCR was performed using iTaq Universal SYBR Green Supermix (Bio-Rad, 172-5124) in a CFX Connect RT-qPCR (Bio-Rad). Thermal cycling condition was as follows: 94° C. for 10 min, followed by 40 cycles of 94° C. for 20 sec, and 60° C. for 60 sec. Analysis of qPCR data was calculated using fold enrichment method (The ChIP signals are divided by the IgG antibody signals, 2^-DDCt).

[4] = system: ovarian cancer cell lines; test: cells; details: read-out: IC50, growth of ovarian cancer cell lines
MDA-MB-231 xenografts = test: MDA-MB-231 mammary fat pad xenograft; assay type: in vivo, mice; details: 5 weeks treatment
Procedure: (§1) (^nsp>0.05, *p<0.05; ** p<0.01). […] (^nsp>0.05, *p<0.05; ** p<0.01). […] Scale bar, 50 μM.
Forty female nu/nu mice were injected with 0.8×10^6 MDA-MB-231 cells into their fourth mammary fat pads. […] Tumors were measured every week as noted above (SKOv3 xenograft models).

[5] = Toxicology / pre-clinical studies, hematologic toxicity; assay type: in vivo
[6] = system: MDA-MB-231 orthotopic xenografts; test: MDA-MB-231 orthotopic xenografts (paclitaxel sensitivity study); assay type: in vivo, mice
organoid = test: Organoid growth; assay type: cell-based
Procedure: To evaluate additive or synergistic interactions, a combination Index (CI value) was calculated with CalcuSyn software.

[7] = system: OVCAR8 and MDA-MB-231 xenograft tumors; test: IHC of xenograft tumors at study termination; assay type: in vivo, mice
Procedure: as §1
Tumors growing as xenografts were collected for histology with H&E and IHC staining. Routine H&E staining detected high-grade ovarian cancer in ovarian cancer xenograft models and breast cancer morphology in the breast cancer xenograft model, respectively. IHC of OVCAR8 and MDA-MB-231 xenograft tumors at study termination recapitulated in vitro studies.
Formalin fixed and paraffin embedded mouse tissue sections were deparaffinized and rehydrated in gradient ethanol solutions. Antigens were retrieved in Rodent Decloaker (BioCare Medical, RD913M) and microwaved twice in an EZ Retriever System V3 (BioGenex) at 95° C. for 5 min. Tissues were blocked in PeroxAbolish (BioCare Medical, PXA969M) for 30 min, Rodent Block M (BioCare Medical, RBM961L) for 30 min, and 5% BSA in PBS for 30 min Tissues were incubated with primary antibody as indicated overnight at 4° C. VisUCyte HRP Polymer IgG (R&D Systems, VC001-025 for mouse, VC003-025 for rabbit) was applied for 30 min at room temperature followed by DAB chromogenesis (BioCare Medical, BDB2004L). Tissues were counter-stained with CAT hematoxylin (Thermo Fisher, CATHE-M) for 20 sec. The slides were then dehydrated through gradient ethanol solutions and two passes of xylene and sealed with Permount (Thermo Fisher, SP15-100).

SKOv3 xenografts = test: SKOv3 subcutaneous xenograft; assay type: in vivo, mice; details: oral, five times per week, 4 weeks
Procedure: as §1

DT40 PARP-1 −/− cells = test: Dose-response in DT40 PARP-1 -/- cells; details: cells lacking PARP1/2
Procedure: Representative data are from three independent experiments with 4 technical repeats per experiment. […] The IC50 indicated on the curves was calculated using GraphPad Prism 8.
To further test this possibility, DT40 PARP-1 −/−cells that lack PARP enzyme activity (avian cells lack PARP2) were treated with SIK2 inhibitors or olaparib.

[8] = system: SKOv3 and OVCAR8 SIK2 knock-out cells; test: Olaparib dose-response in SIK2 knock-out cells; details: SIK2 knock-out by CRISPR/Cas9
Procedure: (§2) Representative experiments were from two independent experiments with four technical repeats per experiment. (B) Dose-response curves of olaparib in paired cancer cell lines with or without knockout of SIK2 (top) and with or without stable transfection of SIK2 (bottom). The median inhibitory concertation (IC50) of olaparib was calculated using GraphPad Prism 8. Representative experiments are from two independent experiments with four technical repeats per experiment. Western analysis confirmed either SIK2 knock out (top) or overexpression (bottom).
(§3) To exclude potential off-target effects of SIK2 inhibitors, SIK2 was knocked down by CRISPR/Cas9 and stable ectopic expression of SIK2 was established in SKOv3 and OVCAR8 ovarian cancer cells.
OVCAR8 and SKOv3 SIK2 knock out cell lines were established using CRISPR/Cas9 technology known in the art. Briefly, a plasmid with GFP containing Cas9 and the sgRNA expression were transfected to cancer cells. […] Transfected cells were isolated by FACS for single-cell culture 2-3 days after transfection, and then the cells were expanded and harvested for detection of the protein expression using western analysis.

[9] = system: SKOv3 and OVCAR8 cells with stable ectopic expression of SIK2; test: Olaparib dose-response in cells with stable ectopic SIK2 expression
Procedure: as §2, §3

Compound | MEF2D binding sites [1] [binding sites] | levels of γ-H2AX and tailed DNA [2] | MEF2D binding to EXO1 and XRCC4 promoter/enhancer regions [3] | MEF2D-association with the FANCD2 promoter/enhancer region [3] | IC50 [4] [nM] | tumor burden / tumor volume (MDA-MB-231 xenografts) | hematologic toxicity [5] | survival of mice [6] | xenograft growth [6] | organoid growth (organoid) | nuclear p-HDAC5 staining [7] | nuclear γ-H2AX staining [7] | tumor growth (SKOv3 xenografts) | sensitivity of DT40 PARP-1 −/− cells (DT40 PARP-1 −/− cells) | IC50 in SIK2 deficient cells compared to control cells [8] | IC50 in cells with stable ectopic expression of SIK2 [9]
COc1c(F)cc(F)cc1-c1c[nH]c2ncc(-c3cnn(C4CCNCC4)c3)cc12 [Compound A, 3-(3,5-difluoro-2-methoxyphenyl)-5-(1-(piperidin-4-yl)-1H-pyrazol-4-yl)-1H-pyrrolo[2,3-b]pyridine] | 36 | modestly increased | significantly decreased | decreased | 800 to 2600 | – | – | – | – | – | – | – | – | – | – | –
COc1c(F)cc(F)cc1-c1c[nH]c2ncc(-c3cnn(C4CCN(S(C)(=O)=O)CC4)c3)cc12 [Compound B, 3-(3,5-difluoro-2-methoxyphenyl)-5-(1-(1-(methylsulfonyl)piperidin-4-yl)-1H-pyrazol-4-yl)-1H-pyrrolo[2,3-b]pyridine] | – | modestly increased | significantly decreased | decreased | 800 to 2600 | tumor burden remained unchanged | minimal hematologic toxicity; also recorded: little or no hematopoietic toxicity | prolonged the survival | inhibited xenograft growth | inhibits organoid growth inducing cell death | decreased | increased nuclear γ-H2AX staining | – | – | – | –
O=C(c1cc(Cc2n[nH]c(=O)c3ccccc23)ccc1F)N1CCN(C(=O)C2CC2)CC1 [Olaparib, reference compound] | – | modestly increased | – | – | – | tumor burden remained unchanged | – | – | – | – | not | – | significantly inhibited tumor growth | resisted | lower IC50 | increased IC50

Reference: patent publication US20240082232A1, “COMPOSITIONS AND METHODS FOR TREATMENT OF OVARIAN AND BREAST CANCER” (Board of Regents, The University of Texas System, priority 2021, published 2024)
